Source: US10221139B2, “Inhibitors of histone demethylases” (Gilead Sciences, Inc., priority 2012, dated 2019)

Columns and labels:
Assay type in all cases: biochemical
[1] = target: T1, GASC1 (KDM4C, JMJD2C) (Homo sapiens, UniProt Q9H3R0); assay: Histone lysine demethylase AlphaLISA assay, GASC1; conditions: substrate BK9M3
T1 construct: 1-349; host or cells: E. coli
T1 sequence (Q9H3R0 1-349): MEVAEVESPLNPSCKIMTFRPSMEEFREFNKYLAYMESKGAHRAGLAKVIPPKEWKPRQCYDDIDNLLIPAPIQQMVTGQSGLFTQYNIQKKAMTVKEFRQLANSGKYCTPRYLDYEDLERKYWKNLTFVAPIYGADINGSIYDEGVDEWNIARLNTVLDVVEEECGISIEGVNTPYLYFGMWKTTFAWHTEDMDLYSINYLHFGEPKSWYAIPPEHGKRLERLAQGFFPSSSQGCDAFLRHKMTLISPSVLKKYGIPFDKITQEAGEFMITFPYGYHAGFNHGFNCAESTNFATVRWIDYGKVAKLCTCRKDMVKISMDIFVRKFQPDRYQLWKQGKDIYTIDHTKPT
Description: (§1) Example 2: Histone Lysine Demethylase AlphaLISA Assays for IC50 Value Determination
(§2) Assays are performed analogously to the protocol described by Perkin Elmer (Roy et al. Perkin Elmer Technical Note: AlphaLISA #12, April 2011).
(§3) Enzymes are dissolved in enzyme buffer and incubated for 10 min before 5 μL is added to 5 μL 3% DMSO solutions of compounds in enzyme buffer. Incubated for another 10 minutes, before 5 μL substrate solution is added and the reaction mixture is incubated at room temperature for the given period. 10 μL acceptor beads, suspended at given dilutions in Epigenetic Buffer (Perkin Elmer AL008) from stock, are added and the suspension is incubated 60 minutes in the dark at room temperature, before 10 μL suspension (at the given dilutions in Epigenetic Buffer) of streptavidin donor beads (Perkin Elmer 6760002) in Epigenetic Buffer is added. After incubation at room temperature in the dark the plates are read. Reaction conditions are seen in Table 2b.

[2] = target: T2, UTX (KDM6A) (Homo sapiens, UniProt O15550); assay: Histone lysine demethylase AlphaLISA assay, UTX; conditions: substrate BK27M3
T2 construct: 919-1401; host or cells: E. coli
T2 sequence (O15550 919-1401): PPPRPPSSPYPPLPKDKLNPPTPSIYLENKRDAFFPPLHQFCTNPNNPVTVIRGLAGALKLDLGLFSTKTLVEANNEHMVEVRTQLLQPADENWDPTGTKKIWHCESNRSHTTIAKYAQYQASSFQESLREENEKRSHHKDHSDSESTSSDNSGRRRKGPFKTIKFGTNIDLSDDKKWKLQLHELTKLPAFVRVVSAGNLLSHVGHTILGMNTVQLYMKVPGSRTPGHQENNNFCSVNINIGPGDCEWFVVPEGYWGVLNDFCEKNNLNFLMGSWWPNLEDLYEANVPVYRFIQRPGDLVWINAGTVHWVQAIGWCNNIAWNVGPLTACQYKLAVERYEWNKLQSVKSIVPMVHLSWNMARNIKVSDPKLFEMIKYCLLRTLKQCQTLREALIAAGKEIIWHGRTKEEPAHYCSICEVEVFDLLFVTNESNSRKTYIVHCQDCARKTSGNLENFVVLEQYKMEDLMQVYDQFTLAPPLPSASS
Description: as §1, §2, §3

[3] = target: T3, PLU1 (KDM5B) (Homo sapiens, UniProt Q9UGL1); assay: Histone lysine demethylase AlphaLISA assay, PLU1; conditions: substrate H3K4M3B
T3 construct: 1-809; host or cells: E. coli
T3 sequence (Q9UGL1 1-809): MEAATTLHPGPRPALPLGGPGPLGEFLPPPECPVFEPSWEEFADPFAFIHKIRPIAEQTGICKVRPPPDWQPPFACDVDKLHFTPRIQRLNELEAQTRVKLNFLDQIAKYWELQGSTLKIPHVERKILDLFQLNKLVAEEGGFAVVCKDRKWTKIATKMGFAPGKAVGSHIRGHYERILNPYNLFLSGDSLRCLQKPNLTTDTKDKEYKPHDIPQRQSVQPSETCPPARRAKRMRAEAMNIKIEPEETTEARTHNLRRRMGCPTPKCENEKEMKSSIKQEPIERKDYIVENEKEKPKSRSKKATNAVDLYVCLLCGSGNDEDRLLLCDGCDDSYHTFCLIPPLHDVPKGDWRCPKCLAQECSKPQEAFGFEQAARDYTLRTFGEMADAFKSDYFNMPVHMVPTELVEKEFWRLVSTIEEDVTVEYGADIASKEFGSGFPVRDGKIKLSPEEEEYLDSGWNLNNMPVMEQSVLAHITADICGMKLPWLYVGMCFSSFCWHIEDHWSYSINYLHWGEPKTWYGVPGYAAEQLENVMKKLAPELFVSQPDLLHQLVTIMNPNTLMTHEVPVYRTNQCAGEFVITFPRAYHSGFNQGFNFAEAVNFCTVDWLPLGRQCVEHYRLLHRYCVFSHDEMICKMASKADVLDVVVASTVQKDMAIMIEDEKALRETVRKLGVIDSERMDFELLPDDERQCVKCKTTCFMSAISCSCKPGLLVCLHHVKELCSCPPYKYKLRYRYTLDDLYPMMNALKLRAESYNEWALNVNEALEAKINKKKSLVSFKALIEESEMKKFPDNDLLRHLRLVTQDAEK
Description: as §1, §2, §3

Compound | IC50 [1] [nM] | IC50 [2] [nM] | IC50 [3] [nM]
CCN(CCN(C)C)C(=O)CNCc1cc(C(=O)OC(C)CCN(C)C(=O)C(F)(F)F)ccn1 (stereo not drawn) [#64, 4-(2,2,2-trifluoro-N-methylacetamido)butan-2-yl 2-{[({[2-(dimethylamino)ethyl](ethyl)carbamoyl}methyl)amino]methyl}pyridine-4-carboxylate] | < 100 | ≥ 1000 | 100 to 1000
O=C(CNCc1cc(C(=O)O)ccn1)NC1CCN(CCc2ccccc2)C1 (stereo not drawn) [#39, 2-{[({[1-(2-phenylethyl)pyrrolidin-3-yl]carbamoyl}methyl)amino]methyl}pyridine-4-carboxylic acid] | < 100 | ≥ 1000 | < 100
2-[({2-[(2S)-1-benzylpyrrolidin-2-yl]ethyl}amino)methyl]pyridine-4-carboxylic acid [#45] | < 100 | ≥ 1000 | < 100
O=C(CNCc1cc(C(=O)O)ccn1)NC1CCN(CCCc2ccccc2)CC1 [#30, 2-{[({[1-(3-phenylpropyl)piperidin-4-yl]carbamoyl}methyl)amino]methyl}pyridine-4-carboxylic acid] | < 100 | ≥ 1000 | < 100
O=C(O)c1ccnc(CNCC(=O)N2CCCC2Cc2ccccc2)c1 (stereo not drawn) [#43, 2-({[2-(2-benzylpyrrolidin-1-yl)-2-oxoethyl]amino}methyl)pyridine-4-carboxylic acid] | < 100 | ≥ 1000 | < 100
C#CCN(C)Cc1cc(C(=O)O)ccn1 [#7, 2-{[methyl(prop-2-yn-1-yl)amino]methyl}pyridine-4-carboxylic acid] | 100 to 1000 | ≥ 1000 | 100 to 1000
CCN(CC)CCCCNCc1cc(C(=O)OCCN(C)C)ccn1 [#53, 2-(dimethylamino)ethyl 2-({[4-(diethylamino)butyl]amino}methyl)pyridine-4-carboxylate] | < 100 | ≥ 1000 | < 100
O=C(O)c1ccnc(CNCC2CC2)c1 [#4, 2-{[(cyclopropylmethyl)amino]methyl}pyridine-4-carboxylic acid] | 100 to 1000 | ≥ 1000 | < 100
CN1CCN(Cc2ccc(CN(C)C(=O)CNCc3cc(C(=O)O)ccn3)cc2)CC1 [#42, 2-[({[methyl({4-[(4-methylpiperazin-1-yl)methyl]phenyl}methyl)carbamoyl]methyl}amino)methyl]pyridine-4-carboxylic acid] | < 100 | 100 to 1000 | < 100
CN(CCC(N)=O)C(=O)CNCc1cc(C(=O)O)ccn1 [#23, 2-[({[(2-carbamoylethyl)(methyl)carbamoyl]methyl}amino)methyl]pyridine-4-carboxylic acid] | < 100 | ≥ 1000 | < 100
CCOC(=O)c1ccnc(CNCC(=O)N(CC)CCN(C)C)c1 [#65, ethyl 2-{[({[2-(dimethylamino)ethyl](ethyl)carbamoyl}methyl)amino]methyl}pyridine-4-carboxylate] | 100 to 1000 | < 100 | 100 to 1000
CC(C)(C)OC(=O)N1CC[C@@H](NCc2cc(C(=O)O)ccn2)C1 [#19, 2-({[(3R)-1-[(tert-butoxy)carbonyl]pyrrolidin-3-yl]amino}methyl)pyridine-4-carboxylic acid] | ≥ 1000 | ≥ 1000 | ≥ 1000
O=C(O)c1ccnc(CNCCCN2CCC(Cc3ccccc3)CC2)c1 [#40, 2-({[3-(4-benzylpiperidin-1-yl)propyl]amino}methyl)pyridine-4-carboxylic acid] | < 100 | ≥ 1000 | < 100
CCN(CCN(C)C)C(=O)CNCc1cc(C(=O)Oc2ccc(OC)cc2)ccn1 [#58, 4-methoxyphenyl 2-{[({[2-(dimethylamino)ethyl](ethyl)carbamoyl}methyl)amino]methyl}pyridine-4-carboxylate] | 100 to 1000 | ≥ 1000 | < 100
O=C(O)c1ccnc(CNCC(=O)N2CCCCC2CO)c1 (stereo not drawn) [#24, 2-[({2-[2-(hydroxymethyl)piperidin-1-yl]-2-oxoethyl}amino)methyl]pyridine-4-carboxylic acid] | < 100 | ≥ 1000 | < 100
CN(Cc1ccnn1C)C(=O)CNCc1cc(C(=O)O)ccn1 [#27, 2-{[({methyl[(1-methyl-1H-pyrazol-5-yl)methyl]carbamoyl}methyl)amino]methyl}pyridine-4-carboxylic acid] | < 100 | ≥ 1000 | < 100
CCN(CC)CCCCNCc1cc(C(=O)OCCCN(C)C)ccn1 [#54, 3-(dimethylamino)propyl 2-({[4-(diethylamino)butyl]amino}methyl)pyridine-4-carboxylate] | 100 to 1000 | ≥ 1000 | < 100
CCN1CCCC1CNC(=O)CNCc1cc(C(=O)O)ccn1 (stereo not drawn) [#26, 2-{[({[(1-ethylpyrrolidin-2-yl)methyl]carbamoyl}methyl)amino]methyl}pyridine-4-carboxylic acid] | < 100 | ≥ 1000 | < 100
CN(CCCc1nccn1C)C(=O)CNCc1cc(C(=O)O)ccn1 [#25, 2-{[({methyl[3-(1-methyl-1H-imidazol-2-yl)propyl]carbamoyl}methyl)amino]methyl}pyridine-4-carboxylic acid] | < 100 | ≥ 1000 | < 100
O=C(O)c1ccnc(CNCCCNCCCN2CCCC2)c1 [#21, 2-{[(3-{[3-(pyrrolidin-1-yl)propyl]amino}propyl)amino]methyl}pyridine-4-carboxylic acid] | < 100 | ≥ 1000 | < 100
CCOC(=O)N(C)c1ccc(COC(=O)c2ccnc(CNCCCCN(CC)CC)c2)cc1 [#60, {4-[(ethoxycarbonyl)(methyl)amino]phenyl}methyl 2-({[4-(diethylamino)butyl]amino}methyl)pyridine-4-carboxylate] | ≥ 1000 | < 100 | < 100
CCN(CC)CCCCNCc1cc(C(=O)Oc2c(C)cccc2C)ccn1 [#57, 2,6-dimethylphenyl 2-({[4-(diethylamino)butyl]amino}methyl)pyridine-4-carboxylate] | ≥ 1000 | ≥ 1000 | < 100
C=CC(CCN(C)C(=O)C(F)(F)F)OC(=O)c1ccnc(CNCC(=O)N(CC)CCN(C)C)c1 (stereo not drawn) [#67, 5-(2,2,2-trifluoro-N-methylacetamido)pent-1-en-3-yl 2-{[({[2-(dimethylamino)ethyl](ethyl)carbamoyl}methyl)amino]methyl}pyridine-4-carboxylate] | 100 to 1000 | < 100 | 100 to 1000
4-methoxyphenyl 2-({[4-(diethylamino)butyl]amino}methyl)pyridine-4-carboxylate [#51] | 100 to 1000 | ≥ 1000 | < 100
CN(CCCNCc1cc(C(=O)O)ccn1)Cc1ccccc1F [#36, 2-{[(3-{[(2-fluorophenyl)methyl](methyl)amino}propyl)amino]methyl}pyridine-4-carboxylic acid] | < 100 | ≥ 1000 | < 100
CCN(CCC#N)C(=O)CNCc1cc(C(=O)O)ccn1 [#33, 2-[({[(2-cyanoethyl)(ethyl)carbamoyl]methyl}amino)methyl]pyridine-4-carboxylic acid] | < 100 | ≥ 1000 | < 100
CCN(CC)CCCCNCc1cc(C(=O)Oc2c(OC)cccc2OC)ccn1 [#56, 2,6-dimethoxyphenyl 2-({[4-(diethylamino)butyl]amino}methyl)pyridine-4-carboxylate] | 100 to 1000 | ≥ 1000 | < 100
